Assay results taken from patent publication US11352400B2, “PI3K gamma inhibitor peptide for treatment of respiratory system diseases” (Kither Biotech S.r.I., priority 2014, dated 2022).

How the values were obtained:
β2-AR/cAMP signaling = assay: FRET imaging of cAMP (ICUE3 probe) in hBSMCs after β2-AR stimulation; type: cell-based, human; conditions: hBSMCs pre-treated 50 μM, 30 minutes; ISO 100 nM + CGP-20712A 100 nM
Procedure: Human bronchial smooth muscle cells (hBSMCs) were transfected with a plasmid encoding the FRET probe for cAMP, ICUE3 (described in the U.S. Pat. No. 8,236,523 B2) (2), by electroporation with a Nucleofector device (AMAXA, Gaithersburg, Md.), according to the manufacturer's protocol. Briefly, 1×10^6 cells were re-suspended in 100 μL of nucleofection solution (VPI-1004, AMAXA, Gaithersburg, Md.), mixed with 1 μg of pcDNA3-ICUE3 (described in U.S. Pat. No. 8,236,523 B2), and subjected to electroporation in a nucleofection apparatus of Amaxa Biosystems (Program A-033). Live cell imaging experiments were performed at 24 hours after transfection.
Measurements of cAMP levels were performed on human bronchial smooth muscle cells (hBSMCs) that express the FRET probe ICUE3, as described previously (2). Briefly, cells were maintained in a K^+-Ringer solution containing (in mmol/L) 121.6 NaCl, 5.4 KCl, 1.8 MgCl2, 1.8 CaCl2, 4 NaHCO3, 0.8 NaH2PO4, 5 D-glucose, 5 sodium pyruvate, 10 HEPES, at pH 7.4. […] FRET efficiency was calculated using the “Method 3” provided by the Leica wizard application for FRET imaging and sensitized emission, according to which: EA(i)=B/A, where EA(i) is the apparent FRET efficiency; A and B are the intensities of the CFP channel and FRET, respectively. […]

CFTR = assay: cAMP-mediated (PKA) phosphorylation of CFTR in NuLi-1 cells; type: cell-based, human; conditions: 30 minutes
Procedure: Human airway epithelial cell lines expressing a wild-type CFTR (NuLi-1) or with the ΔF508 mutation (CuFi-1) were purchased from ATCC (NuLi-1 product code: ATCC® CRL-4011™; CuFi-1 product code: ATCC® CRL-4013™). Cells were cultured in Dulbecco's Modified Eagle Medium (DMEM, Gibco, Carlsbad, Calif.) supplemented with 10% fetal bovine serum (FBS), 30 μg/mL of penicillin, 100 μg/mL of streptomycin and 300 μg/mL hygromycin B (Gibco, Carlsbad, Calif.).
For immunoprecipitation assays, protein extracts were pre-incubated with 30 μL of a 1:1 mixture of protein A or G and sepharose (Amersham Biosciences, Buckinghamshire, UK) and subsequently incubated with 20 μL of a 1:1 mixture of protein A or G and sepharose and […] of primary antibody for each mg of protein, for 2 hours at 4° C. Immune complexes were washed extensively with lysis buffer and used for Western blotting or subjected to measurements of phosphodiesterase activity.
The antibody that recognizes substrates phosphorylated by PKA (P-PKA substrate) was purchased from Cell Signaling Technology (Danvers, Mass., USA; product code: #9621) and the antibody against CFTR clone M3A7 from Millipore (Billerica, Mass., USA; product code: 05-583).

**Q.** What does the source list for “RQIKIWFQNRRMKWKKGKATHRSPGQIHLVQRHPPSEESQAF (fusion peptide comprising SEQ ID No.1 and SEQ ID No.3) [Trojan peptide derived from PI3Kγ]”?
**A.** increase of cAMP accumulation following stimulation of β2-ARs (β2-AR/cAMP signaling): 35%; CFTR phosphorylation (cAMP-mediated) (CFTR; 25 μM, vs vehicle or P1): significantly higher; cAMP-dependent CFTR phosphorylation induced by a PDE4 inhibitor (CFTR; peptide 25 μM together with Rolipram 10 μM): further enhanced
